Test results reported in patent US20200069691A1, “HETEROCYCLIC COMPOUNDS AS HIV PROTEASE INHIBITORS” (Merck Sharp & Dohme Corp., priority 2016, published 2020).

Molecular target: T1, wild-type HIV-1 protease (Human immunodeficiency virus type 1 group M subtype B, UniProt P04585)
T1 construct: Escherichia coli expressed wild-type HIV-1 protease protein
Assay: Assay for Inhibition of Microbial Expressed HIV Protease (peptide substrate cleavage, LC-MS/MS readout)
Format: biochemical
Conditions: E. coli expressed wild-type HIV-1 protease, mean of at least two independent experiments, read-out: HIV Pr Enzyme HIV1 PR IC50
Outline: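 E. coli-expressed wild-type HIV-1 protease ([…]) was preincubated with inhibitor 30 min at room temperature in pH 5.5 acetate buffer (100 mM NaCl, 0.1% BSA). Then 400 μM octapeptide substrate was added and reacted 1 h at 30 °C; inhibition came from LC-MS/MS product peak areas, mean of ≥2 experiments.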

| Structure (SMILES) | IC50 |
| --- | --- |
| N=C1NC(c2ccccc2)(c2ccccc2)C(=O)N1Cc1ccc(Cl)c(C(=O)N2Cc3cccnc3C2)c1 [Compound 368, 3-[4-chloro-3-(5,7-dihydro-6H-pyrrolo[3,4-b]pyridin-6-ylcarbonyl)benzyl]-2-imino-5,5-diphenylimidazolidin-4-one] | 5.42 nM |
| COc1ccc(CN2C(=N)NC(c3ccc(Cl)cc3)(c3ccc(Cl)cc3)C2=O)cc1C(=O)N1Cc2nccnc2C1 [Compound 369, 5,5-bis(4-chlorophenyl)-3-[3-(5,7-dihydro-6H-pyrrolo[3,4-b]pyrazin-6-ylcarbonyl)-4-methoxybenzyl]-2-iminoimidazolidin-4-one] | 31.4 nM |
| COC(=O)Nc1ncc2c(n1)CN(C(=O)c1cc(CN3C(=N)NC(c4ccc(F)cc4)(c4ccc(F)cc4)C3=O)ccc1F)C2 [Compound 370, methyl {6-[(5-{[4,4-bis(4-fluorophenyl)-2-imino-5-oxoimidazolidin-1-yl]methyl}-2-fluorophenyl)carbonyl]-6,7-dihydro-5H-pyrrolo[3,4-d]pyrimidin-2-yl}carbamate] | 5.81 nM |
| COc1ccc(CN2C(=N)NC(c3ccccc3)(c3ccccc3)C2=O)cc1C(=O)N1Cc2ccccc2C1 [Compound 371, 3-[3-(1,3-dihydro-2H-isoindol-2-ylcarbonyl)-4-methoxybenzyl]-2-imino-5,5-diphenylimidazolidin-4-one] | 29.5 nM |
| COc1ccc(CN2C(=N)NC(c3ccccc3)(c3ccccc3)C2=O)cc1C(=O)N1Cc2cccc(F)c2C1 [Compound 372, 3-{3-[(4-fluoro-1,3-dihydro-2H-isoindol-2-yl)carbonyl]-4-methoxybenzyl}-2-imino-5,5-diphenylimidazolidin-4-one] | 6.91 nM |
| CC(C)CC1(c2ccccc2)NC(=N)N(Cc2ccc(Cl)c(C(=O)N3Cc4cncnc4C3)c2)C1=O (centres unmarked) [Compound 373, 3-[4-chloro-3-(5,7-dihydro-6H-pyrrolo[3,4-d]pyrimidin-6-ylcarbonyl)benzyl]-2-imino-5-(2-methylpropyl)-5-phenylimidazolidin-4-one] | 6.93 nM |
| N=C1NC(c2ccccc2)(c2ccccc2)C(=O)N1Cc1ccc(Cl)c(C(=O)N2Cc3cncnc3C2)c1 [Compound 374, 3-[4-chloro-3-(5,7-dihydro-6H-pyrrolo[3,4-d]pyrimidin-6-ylcarbonyl)benzyl]-2-imino-5,5-diphenylimidazolidin-4-one] | 7.02 nM |
| N=C1NC(c2ccc(F)cc2)(c2ccc(F)cc2)C(=O)N1Cc1ccc(Cl)c(C(=O)N2Cc3ccccc3C2)c1 [Compound 375, 3-[4-chloro-3-(1,3-dihydro-2H-isoindol-2-ylcarbonyl)benzyl]-5,5-bis(4-fluorophenyl)-2-iminoimidazolidin-4-one] | 7.56 nM |
| N=C1NC(c2ccc(F)cc2)(c2ccc(F)cc2)C(=O)N1Cc1ccc(Cl)c(C(=O)N2Cc3cncnc3C2)c1 [Compound 376, 3-[4-chloro-3-(5,7-dihydro-6H-pyrrolo[3,4-d]pyrimidin-6-ylcarbonyl)benzyl]-5,5-bis(4-fluorophenyl)-2-iminoimidazolidin-4-one] | 9.6 nM |
| N=C1NC(c2ccc(F)cc2)(c2ccc(F)cc2)C(=O)N1Cc1ccc(Cl)c(C(=O)N2Cc3ccc(F)cc3C2)c1 [Compound 377, 3-{4-chloro-3-[(5-fluoro-1,3-dihydro-2H-isoindol-2-yl)carbonyl]benzyl}-5,5-bis(4-fluorophenyl)-2-iminoimidazolidin-4-one] | 10 nM |
| CN1CCN(C(=O)c2cc(CN3C(=N)NC(c4ccccc4)(c4ccccc4)C3=O)ccc2Cl)CC1=O [Compound 378, 4-({2-chloro-5-[(2-imino-5-oxo-4,4-diphenylimidazolidin-1-yl)methyl]phenyl}carbonyl)-1-methylpiperazin-2-one] | 10.6 nM |
| N=C1NC(c2ccccc2)(c2ccccc2)C(=O)N1Cc1ccc(F)c(C(=O)N2Cc3nccnc3C2)c1 [Compound 379, 3-[3-(5,7-dihydro-6H-pyrrolo[3,4-b]pyrazin-6-ylcarbonyl)-4-fluorobenzyl]-2-imino-5,5-diphenylimidazolidin-4-one] | 10.7 nM |
| N=C1NC(c2ccccc2)(c2ccccc2)C(=O)N1Cc1ccc(Cl)c(C(=O)N2CCNC(=O)C2)c1 [Compound 380, 4-({2-chloro-5-[(2-imino-5-oxo-4,4-diphenylimidazolidin-1-yl)methyl]phenyl}carbonyl) piperazin-2-one] | 11.2 nM |
| COC(=O)N1CCN(C(=O)c2cc(CN3C(=N)NC(c4ccc(F)cc4)(c4ccc(F)cc4)C3=O)ccc2Cl)CC1 [Compound 381, methyl 4-[(5-{[4,4-bis(4-fluorophenyl)-2-imino-5-oxoimidazolidin-1-yl]methyl}-2-chlorophenyl)carbonyl] piperazine-1-carboxylate] | 12.4 nM |
| N=C1NC(c2ccc(F)cc2)(c2ccc(F)cc2)C(=O)N1Cc1ccc(F)c(C(=O)N2Cc3nccnc3C2)c1 [Compound 382, 3-[3-(5,7-dihydro-6H-pyrrolo[3,4-b]pyrazin-6-ylcarbonyl)-4-fluorobenzyl]-5,5-bis(4-fluorophenyl)-2-iminoimidazolidin-4-one] | 13.1 nM |
| N=C1NC(c2ccccc2)(c2ccccc2)C(=O)N1Cc1ccc(Cl)c(C(=O)N2CCC(n3c(=O)[nH]c4ccccc43)CC2)c1 [Compound 383, 1-[1-({2-chloro-5-[(2-imino-5-oxo-4,4-diphenylimidazolidin-1-yl)methyl]phenyl}carbonyl)piperidin-4-yl]-1,3-dihydro-2H-benzimidazol-2-one] | 14.7 nM |
| N#Cc1ncc2c(n1)CN(C(=O)c1cc(CN3C(=N)NC(c4ccccc4)(c4ccccc4)C3=O)ccc1F)C2 [Compound 384, 6-({2-fluoro-5-[(2-imino-5-oxo-4,4-diphenylimidazolidin-1-yl)methyl]phenyl}carbonyl)-6,7-dihydro-5H-pyrrolo[3,4-d]pyrimidine-2-carbonitrile] | 21.6 nM |
| N=C1NC(c2ccccc2)(c2ccccc2)C(=O)N1Cc1ccc(F)c(C(=O)N2Cc3cncnc3C2)c1 [Compound 385, 3-[3-(5,7-dihydro-6H-pyrrolo[3,4-d]pyrimidin-6-ylcarbonyl)-4-fluorobenzyl]-2-imino-5,5-diphenylimidazolidin-4-one] | 25.8 nM |
| N=C1NC(c2ccccc2)(c2ccccc2)C(=O)N1Cc1ccc(F)c(C(=O)N2Cc3cccnc3C2)c1 [Compound 386, 3-[3-(5,7-dihydro-6H-pyrrolo[3,4-b]pyridin-6-ylcarbonyl)-4-fluorobenzyl]-2-imino-5,5-diphenylimidazolidin-4-one] | 28.2 nM |
| COc1ccc(CN2C(=N)NC(c3ccccc3)(c3ccccc3)C2=O)cc1C(=O)N1Cc2cncnc2C1 [Compound 387, 3-[3-(5,7-dihydro-6H-pyrrolo[3,4-d]pyrimidin-6-ylcarbonyl)-4-methoxybenzyl]-2-imino-5,5-diphenylimidazolidin-4-one] | 32.2 nM |
| COc1ccc(CN2C(=N)NC(c3ccc(Cl)cc3)(c3ccc(Cl)cc3)C2=O)cc1C(=O)N1Cc2ccccc2C1 [Compound 388, 5,5-bis(4-chlorophenyl)-3-[3-(1,3-dihydro-2H-isoindol-2-ylcarbonyl)-4-methoxybenzyl]-2-iminoimidazolidin-4-one] | 54.3 nM |
| N=C1NC(c2ccc(F)cc2)(c2ccc(F)cc2)C(=O)N1Cc1ccc(Cl)c(C(=O)N2CCC(F)(F)C2)c1 [Compound 389, 3-{4-chloro-3-[(3,3-difluoropyrrolidin-1-yl)carbonyl]benzyl}-5,5-bis(4-fluorophenyl)-2-iminoimidazolidin-4-one] | 98.5 nM |
| CC(C)C[C@]1(c2ccccc2)NC(=N)N(Cc2cnc(C(F)(F)F)c(C(=O)N3Cc4nccnc4C3)c2)C1=O [Compound 390, (5R)-3-{[5-(5,7-dihydro-6H-pyrrolo[3,4-b]pyrazin-6-ylcarbonyl)-6-(trifluoromethyl)pyridin-3-yl]methyl}-2-imino-5-(2-methylpropyl)-5-phenylimidazolidin-4-one] | 8.45 nM |
| N=C1NC(c2ccc(F)cc2)(c2ccc(F)cc2)C(=O)N1Cc1cncc(C(=O)N2CCN(C(=O)OCCOCc3ccccc3)CC2)c1 [Compound 391, 2-(benzyloxy)ethyl 4-[(5-{[4,4-bis(4-fluorophenyl)-2-imino-5-oxoimidazolidin-1-yl]methyl}pyridin-3-yl)carbonyl]piperazine-1-carboxylate] | 13.6 nM |
| N=C1NC(c2ccc(F)cc2)(c2ccc(F)cc2)C(=O)N1Cc1cncc(C(=O)N2CCC(n3c(=O)[nH]c4ccccc43)CC2)c1 [Compound 392, 1-{1-[(5-{[4,4-bis(4-fluorophenyl)-2-imino-5-oxoimidazolidin-1-yl]methyl}pyridin-3-yl)carbonyl]piperidin-4-yl}-1,3-dihydro-2H-benzimidazol-2-one] | 61.7 nM |
| N#Cc1ncc2c(n1)CN(C(=O)c1cncc(CN3C(=N)NC(c4ccc(F)cc4)(c4ccc(F)cc4)C3=O)c1)C2 [Compound 393, 6-[(5-{[4,4-bis(4-fluorophenyl)-2-imino-5-oxoimidazolidin-1-yl]methyl}pyridin-3-yl)carbonyl]-6,7-dihydro-5H-pyrrolo[3,4-d]pyrimidine-2-carbonitrile] | 67.1 nM |
| N=C1NC(c2ccc(F)cc2)(c2ccc(F)cc2)C(=O)N1Cc1cncc(C(=O)N2Cc3ccccc3C2)c1 [Compound 394, 3-{[5-(1,3-dihydro-2H-isoindol-2-ylcarbonyl)pyridin-3-yl]methyl}-5,5-bis(4-fluorophenyl)-2-iminoimidazolidin-4-one] | 93.1 nM |
| N=C1NC(c2ccc(F)cc2)(c2ccc(F)cc2)C(=O)N1Cc1cncc(C(=O)N2CCN(C(=O)OCc3ccccc3)CC2)c1 [Compound 395, benzyl 4-[(5-{[4,4-bis(4-fluorophenyl)-2-imino-5-oxoimidazolidin-1-yl]methyl}pyridin-3-yl)carbonyllpiperazine-1-carboxylate] | 97.4 nM |
| N=C1NC(c2ccccc2)(c2ccccc2)C(=O)N1Cc1cc(C(=O)N2Cc3ccccc3C2)ccn1 [Compound 396, 3-{[4-(1,3-dihydro-2H-isoindol-2-ylcarbonyl)pyridin-2-yl]methyl}-2-imino-5,5-diphenylimidazolidin-4-one] | 16.7 nM |
